3 compounds from publication PMC11243693, “Synthesis and Biological Evaluation of New Compounds with Nitroimidazole Moiety” (Molecules, 2024) can be followed below.

Converted amounts (≈) assume the structure as drawn.

The subject of data set [1] is normal and cancer cell lines. The data set is described as follows: MTT assay, normal and cancer cell lines. In kind it is cell-based, human. To be noted: in words, 1 to 100 µM, 24 h. How it is done: Colon cancer (SW480), breast adenocarcinoma (MDA-MB-231), lung carcinoma (A-549), prostate cancer (PC3), and immortal keratinocyte (HaCaT) cell lines of human origin were acquired from the American Type Culture Collection (ATCC). The recommended culture media and protocols provided by ATCC were as follows: SW480 were cultured in Minimum Essential Medium (MEM), MDA-MB-231, A-549, and HaCaT cells were cultured in Dulbecco’s Modified Eagle Medium (DMEM), while PC3 was cultured in Roswell Park Memorial Institute Medium (RPMI). The culture media were supplemented with 10% fetal bovine serum (FBS), penicillin (100 U/mL), and streptomycin (100 μg/mL). Cells were maintained in a humidified incubator at 37 °C with 5% CO2. Passaging was carried out upon reaching 80–90% confluence using 0.25% trypsin (Gibco Life Technologies, New York, NY, USA) treatment prior to experimentation.
Cell viability was assessed utilizing the MTT assay, which relies on the conversion of 3-(4,5-dimethylthiazol-2-yl)-2,5-diphenyltetrazolium bromide salt (MTT) to formazan crystals by mitochondrial dehydrogenases in viable cells. […] The absorbance of the resulting solution was measured at 570 nm using a UVM 340 reader (ASYS Hitech GmbH, Seekirchen am Wallersee, Austria). IC50 values were determined using GraphPad software (GraphPad Prism 8 Software).

Data set [2] concerns Staphylococcus aureus ATCC 25923. Briefly: Broth microdilution, S. aureus ATCC 25923. Format: cell-based. Conditions: Sa 25923. In a few lines: (§1)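 Compounds are diluted twofold, starting at 1000 µg/mL, in Mueller-Hinton medium, supplemented with 2% glucose for the yeast strains. Wells then receive a tenfold-diluted 0.5 McFarland inoculum and incubate 18 ± 2 h at 35 ± 2 °C. Absorbance at 570 nm gives the MIC.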
For orientation: Broth dilution looks for growth in wells or tubes with falling amounts of substance.

Data set [3] relates to Staphylococcus aureus ATCC 6538. The data set is described as follows: Broth microdilution, S. aureus ATCC 6538. Format: cell-based. Conditions: Sa 6538. In a few lines: (§2)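 EUCAST broth microdilution: inoculum 0.5 McFarland, 10-fold diluted; Mueller-Hinton broth (bacteria) or MH + 2% glucose (yeast); twofold dilutions from 1000 µg/mL; 18 ± 2 h at 35 ± 2 °C, A570 read for MIC. MBC/MFC from subculture on MHA or MHA + 2% glc (99.9% kill).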

The subject of data set [4] is Staphylococcus aureus ATCC 43300 methicillin-resistant MRSA. Briefly: Broth microdilution, S. aureus ATCC 43300 MRSA. To be noted: Sa 43300 MRSA. Format: cell-based. In outline:
as §1

The subject of data set [5] is Staphylococcus epidermidis ATCC 12228. The data set is described as follows: Broth microdilution, S. epidermidis ATCC 12228. Format: cell-based. To be noted: Se 12228. In outline:
as §1

The test system of data set [6] is Micrococcus luteus ATCC 10240. Briefly: Broth microdilution, M. luteus ATCC 10240. In kind it is cell-based. Conditions: Ml 10240. In a few lines: as §1
In data set [7] the test system is Bacillus subtilis ATCC 6633. The data set is described as follows: Broth microdilution, B. subtilis ATCC 6633. In kind it is cell-based. To be noted: Bs 6633. In outline: as §1
For data set [8], the system named is Bacillus cereus ATCC 10876. The data set is described as follows: Broth microdilution, B. cereus ATCC 10876. In kind it is cell-based. To be noted: Bc 10876. In outline:
as §2

In data set [9] the test system is Candida parapsilosis ATCC 22019. The data set is described as follows: Broth microdilution, C. parapsilosis ATCC 22019. Format: cell-based. To be noted: Cp 22019. In a few lines: as §2
Data set [10] has as its system Candida glabrata ATCC 90030. Briefly: Broth microdilution, C. glabrata ATCC 90030. To be noted: Cg 90030. Format: cell-based. In a few lines: as §2
The subject of data set [11] is Candida krusei ATCC 14243. The data set is described as follows: Broth microdilution, C. krusei ATCC 14243. In kind it is cell-based. To be noted: Ck 14243. In a few lines: as §2
The test system of data set [12] is Candida glabrata ATCC 15126. The data set is described as follows: Broth microdilution, C. glabrata ATCC 15126. In kind it is cell-based. To be noted: Cg 15126. In outline: as §2
In data set [13] the test system is Candida tropicalis ATCC 1369. The data set is described as follows: Broth microdilution, C. tropicalis ATCC 1369. Format: cell-based. Conditions: Ct 1369. In outline:
as §2

The test system of another data set is Candida auris CDC B11903. Briefly: Broth microdilution, C. auris CDC B11903. Format: cell-based. Conditions: Ca B11903. In a few lines:
as §2

Data set [14] deals with Candida lusitaniae ATCC 3449. The data set is described as follows: Broth microdilution, C. lusitaniae ATCC 3449. In kind it is cell-based. To be noted: Cl 3449. In outline:
as §2

In another data set the test system is Gram-positive bacteria. Briefly: Broth microdilution, Gram-positive bacteria. In kind it is cell-based. To be noted: strains as named in the sentence. How it is done:
The antibacterial activity of the obtained thiosemicarbazides and hydrazide–hydrazones was determined by evaluating their ability to inhibit microbial growth in vitro using the broth microdilution method, according to the guidelines of the European Committee on Antimicrobial Susceptibility Testing (EUCAST). The method involved the preparation of microbial suspensions with a standardized density of 0.5 on the McFarland scale (equivalent to 1.5 × 10^8 colony-forming units/mL for bacteria and […] for fungi). A solution of the test substances was then prepared (initial concentration 1000 µg/mL, diluted in sterile Mueller-Hinton broth for bacteria or Mueller-Hinton with 2% glucose for fungi). The test was carried out in 96-well polystyrene flat-bottom plates (Medlab, Poland) with 100 µL of appropriate sterile microbiological medium in each well. […] After incubation, the spectrophotometric absorbance at 570 nm in each well of the plate was read. […] The MBC value was determined by adding 5 µL of the contents of each well of the plate to solid sterile MHA or MHA + 2%glc medium for bacteria and fungi, respectively. […] In addition, the quotient MBC(MFC)/MIC could be determined to assess the nature of the activity of the test substance. […]

Another data set has as its system Candida spp. Briefly: Broth microdilution, Candida spp. In kind it is cell-based. Conditions: range over both strains and the listed compounds. As for the experimental part:
The antibacterial activity of the obtained thiosemicarbazides and hydrazide–hydrazones was determined by evaluating their ability to inhibit microbial growth in vitro using the broth microdilution method, according to the guidelines of the European Committee on Antimicrobial Susceptibility Testing (EUCAST). The method involved the preparation of microbial suspensions with a standardized density of 0.5 on the McFarland scale (equivalent to 1.5 × 10^8 colony-forming units/mL for bacteria and […] for fungi). A solution of the test substances was then prepared (initial concentration 1000 µg/mL, diluted in sterile Mueller-Hinton broth for bacteria or Mueller-Hinton with 2% glucose for fungi). The test was carried out in 96-well polystyrene flat-bottom plates (Medlab, Poland) with 100 µL of appropriate sterile microbiological medium in each well. The first wells were filled with 200 µL of the test substance, diluted to the initial concentration, and then double-decreasing dilutions were made under aseptic conditions using an automatic pipette. The final step was the addition of a 10-fold diluted microbial suspension of 2 µL. At the same time, the following controls were included: (a) medium control (100 µL of sterile medium without microorganisms added), (b) microbial viability control, (c) test substance control (dilutions without added micro-organisms), (d) positive control of the drug used in the clinic. The plates thus prepared were incubated for 18 ± 2 h at 35 ± 2 °C under conditions optimal for the growth of the test microorganisms. After incubation, the spectrophotometric absorbance at 570 nm in each well of the plate was read. The aim of this part of the study was to determine two parameters: the minimum inhibitory concentration (MIC) and the minimum bactericidal or fungicidal concentration (MBC/MFC) of the test compound. […] The MBC value was determined by adding 5 µL of the contents of each well of the plate to solid sterile MHA or MHA + 2%glc medium for bacteria and fungi, respectively. The area on the plate where 99.9% inhibition of microbial growth was observed indicated the lethal concentration. In addition, the quotient MBC(MFC)/MIC could be determined to assess the nature of the activity of the test substance. If MBC(MFC)/MIC was <4, the test substance was bactericidal/fungicidal, whereas if MBC(MFC)/MIC was ≥4, it was bacteriostatic/fungistatic. Amoxicillin (Glentham Life Sciences, USA) and nystatin (Glentham Life Sciences, USA) were used as the controls for this assay.
The test was performed either on bacteria, comprising: Gram-positive (Staphylococcus aureus ATCC 25923, Staphylococcus aureus ATCC 6538, Staphylococcus aureus ATCC 43300 methicillin-resistant MRSA, Staphylococcus epidermidis ATCC 12228, Micrococcus luteus ATCC 10240, Bacillus subtilis ATCC 6633, Bacillus cereus ATCC 10876) and Gram-negative (Escherichia coli ATCC 25922, Pseudomonas aeruginosa ATCC 27853, Proteus mirabilis ATCC 12453, Klebsiella pneumoniae ATCC 13883) or yeast (Candida parapsilosis ATCC 22019, Candida glabrata ATCC 90030, Candida krusei ATCC 14243, Candida glabrata ATCC 15126, Candida tropicalis ATCC 1369, Candida auris CDC B11903, Candida lusitaniae ATCC 3449) reference strains from the American Type Culture Collection (ATCC) or the Centers for Disease Control and Prevention (CDC).

Where [15] appears, read: <4 bactericidal, ≥4 bacteriostatic.

As to `COc1cc(O)ccc1C=NNC(=O)c1nc([N+](=O)[O-])cn1C` [Compound 33, N’-[(4-hydroxy-2-methoxyphenyl)methylidene]-1-methyl-4-nitro-1H-imidazole-2-carbohydrazide], the melting point was in the range of 233 to 235 °C. In addition, the “cytotoxic potential on normal and cancer cell lines” value in data set [1] was “did not show cytotoxic activity”.
In the case of `Cn1cc([N+](=O)[O-])nc1C(=O)NNC(=S)Nc1ccc(C(F)(F)F)cc1` [Compound 14], the minimal bactericidal concentration (MBC) is on record as >1000 µg/mL in [2]; 1000 µg/mL (≈ 2580 µM) in data set [3]; 500 µg/mL (≈ 1290 µM) in [4]; 500 µg/mL (≈ 1290 µM) in [5]; 500 µg/mL (≈ 1290 µM) in data set [6]; 31.25 µg/mL (≈ 80.5 µM) in [7]. This compound also returned a minimal bactericidal concentration (MBC) in data set [8] of 250 µg/mL (≈ 644 µM). The MIC was found to be 31.25 µg/mL (≈ 80.5 µM) in [2]; 62.5 µg/mL (≈ 161 µM) in data set [3]; 62.5 µg/mL (≈ 161 µM) in [4]; 31.25 µg/mL (≈ 80.5 µM) in data set [5]; 62.5 µg/mL (≈ 161 µM) in [6]; 31.25 µg/mL (≈ 80.5 µM) in data set [7]. The minimum inhibitory concentration (MIC) is listed as 31.25 µg/mL (≈ 80.5 µM) in data set [8]; >1000 µg/mL in data set [9]; >1000 µg/mL in data set [10]; >1000 µg/mL in data set [11]; >1000 µg/mL in [12]; 500 µg/mL (≈ 1290 µM) in data set [13]. In addition, the MIC (against Candida auris CDC B11903; in data set [14]) was >1000 µg/mL in each case. Moreover, the “MBC/MIC Ratio” value in data set [5] (setting [15]) worked out at 16; in [6] (setting [15]), 8; in [7] (setting [15]) it was 1; in data set [8] (setting [15]), 8. The minimal fungicidal concentration (MFC) in data set [13] is reported as 500 µg/mL (≈ 1290 µM). Further, the “MFC/MIC Ratio” value in data set [13] (<4 fungicidal, ≥4 fungistatic) stood at 1. The “MIC (range or value for several Gram-positive strains)” value against Gram-positive bacteria was in the range of 31.25 to 62.5 µg/mL. In the data set with Candida spp., the “MBC (range, C. parapsilosis ATCC 22019 and C. tropicalis ATCC 1369)” value was in the range of 500 to 1000 µg/mL. Further, the “MIC (range, C. parapsilosis ATCC 22019 and C. tropicalis ATCC 1369)” value with Candida spp. lay within 62.5 to 1000 µg/mL.
Turning to `COc1cc(C=NNC(=O)c2nc([N+](=O)[O-])cn2C)ccc1O` [Compound 32, N’-[(4-hydroxy-3-methoxyphenyl)methylidene]-1-methyl-4-nitro-1H-imidazole-2-carbohydrazide], the melting point was in the range of 241 to 243 °C. Besides, the “cytotoxic potential on normal and cancer cell lines” value in data set [1] is listed as “did not show cytotoxic activity”.

The term melting point denotes the temperature of the solid-liquid transition. Usually MBC stands for the lowest tested concentration that kills the bacteria rather than only halting them. Read a high MBC as less potent killing. Broadly, the MIC is the least concentration at which growth counts as inhibited. What is called MFC is the smallest concentration meeting the test's criterion for killing the fungus. A lower MFC goes with greater fungicidal potency.
